# Earlier results, collected in patent US10851223B2, “Use of a cyclodextrin polycondensate or a composition comprising such a polycondensate, as a capturing agent” (BIOSTART, priority 2016, dated 2020).
# Conditions: octanol/water
row,Compound,Log Kow
1,CN(C)C(=O)Nc1ccc(Cl)c(Cl)c1 [Diuron],2.68
2,Clc1ccc(-c2ccc(Cl)cc2Cl)cc1 [PCB 28],5.62
3,Clc1ccc(Cl)c(-c2cc(Cl)ccc2Cl)c1 [PCB 52],6.12
4,Clc1ccc(Cl)c(-c2cc(Cl)c(Cl)cc2Cl)c1 [PCB 101],6.8
5,Clc1ccc(-c2cc(Cl)c(Cl)cc2Cl)cc1Cl [PCB 118],6.84
6,Clc1cc(Cl)c(-c2ccc(Cl)c(Cl)c2Cl)cc1Cl [PCB 138],7.25
7,Clc1cc(Cl)c(-c2cc(Cl)c(Cl)cc2Cl)cc1Cl [PCB 153],7.21
8,Clc1cc(Cl)c(-c2cc(Cl)c(Cl)c(Cl)c2Cl)cc1Cl [PCB 180],7.7
9,c1ccc2c(c1)c1cccc3ccc4cccc2c4c31 [benzopyrene],6.07
10,CCCCC(CC)COC(=O)c1ccccc1C(=O)OCC(CC)CCCC (stereo not shown) [di(2-ethylhexyl)-phthalate],7.6
